For series [1], the system named is adrenergic synapses of the sympathetic nervous system. Briefly: SPECT imaging of I-123-radiolabeled mIBG distribution in the heart, combined with x-ray CT. The series is classed as in vivo. Conditions: human patient, I-123-mIBG, D-SPECT plus CT. The method, then: A human patient was administered I-123-radiolabeled mIBG, a radioactive tracer for adrenergic synapses of the sympathetic nervous system. An image based on mIBG distribution was obtained by SPECT using a D-SPECT® Cardiac Imaging System (Spectrum Dynamics, Israel). The anatomy of the heart was determined by performing x-ray CT imaging and segmenting the obtained x-ray CT images. The x-ray CT data was then combined with the SPECT data so as to construct an image showing mIBG distribution in the heart.

The next series relates to prostate stromal cells. The conditions noted are these: in vitro; cited from earlier work.

Regarding `N=C(N)NCc1cccc(I)c1` [mIBG, m-iodobenzylguanidine], in series [1] (left atrium, FIGS. 6A-6D), the “mIBG activity in left atrium (site of maximal activity level)” value is “maximal activity level in the left inferior pulmonary vein”. In addition, in series [1] (right ventricle, FIGS. 8A-8B), the “mIBG activity in right ventricle (site of maximal activity level)” value is “maximal activity level in the interventricular septum”.

As for `NC[C@H](O)c1ccc(O)c(O)c1` [Norepinephrine, norepinephrine], in the series on prostate stromal cells, the “mitogenic effect on prostate stromal cells” value is “direct mitogenic effect”.

(Values after patent US20150366523A1, “NEURONAL IMAGING AND TREATMENT” (priority 2013, published 2015).)
